This note sets out measurements from patent US9359338B2, “Cyclopropanecarboxamido-substitute aromatic compounds as anti-tumor agents” (Crown Bioscience Inc. (Taiwan), priority 2012, dated 2016).

pIC50: −log10 of the molar value. Where two headings read alike, the source gives them in different places.

Experiment [1] concerns PLC-PRF-5 cells. Description: Inhibition of proliferation of PLC-PRF-5 cells (ATPlite). Type of experiment: cell-based. The note with it: Homo sapiens. A digest of the protocol:
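PLC-PRF-5 cells in DMEM/10% FBS, seeded 2 h before compound; 8-point 3-fold dilutions from 30 μM final top, 0.3% DMSO. After 96 h at 37 °C, 5% CO2, ATP content read by ATPlite luminescence; IC50 calculated.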
In general terms: In ATP-based viability assays light output follows the ATP content of the culture.

Experiment [2] has as its target B-Raf kinase (Homo sapiens (Human), UniProt P15056). The experiment in a line: Inhibitory activity at B-Raf kinase (ADP-GLO assay). Type of experiment: biochemical. As for the experimental part: Inhibitory Activity of Compounds at B-Raf Kinase
• [Experimental method]: Use ADP-GLO™ assay kit from Promega to evaluate the inhibitory activity of compounds at B-Raf • [Instrument]: PerKinElmer's ENVISION plate reader • [Material]: Optiplate-384 well plate (PerKinElmer), kinase buffer (50 mM Hepes pH7.5, 1 mM EGTA, 2 mM DTT, 10 mM Mg^2+, 0.05% BSA), B-Raf kinase (Millipore, catalogue #14-530-K), GST-MEK1 substrate (Carna, catalogue #07-141-10), Super pure ATP (Promega), ADP-GLO™ assay kit (Promega, catalogue # V9102), DMSO (Sigma, catalogue #34869), purified water (Millipore, type: Milli-Q). • [Study conditions]: Mix B-Raf kinase (final concentration: 5 nM) and compound (DMSO final concentration: 0.25%) and preincubate at 30° C. for 20 min, then add ATP (final concentration: 6 μM) and reaction substrate (final concentration: 30 nM), React for 2 hrs at 30° C. After reaction, add ADP-GLO™ reagent, react for 40 min at room temperature, then add ADP-GLO™ detecting agent, react for 30 min at room temperature. After that, use ENVSION to measure the […]. • [Samples]: Compounds in the examples and Sorafenib (positive control) • [Data analysis]: Use CBIS data analysis software to calculate IC50 values
In general terms: ADP-Glo turns the ADP formed in a reaction into a luminescent signal.

Experiment [3] concerns pERK in MDA-MB-231 cells. The experiment in a line: Inhibitory activity at pERK (In Cell Western, MDA-MB-231 cells). Type of experiment: cell-based. A digest of the protocol: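 MDA-MB-231 cells were treated 2 h at 37 °C with 8 compound concentrations in 3-fold dilutions from 30 μM top (0.3% DMSO, DMEM with 0.1% BSA). Cells were then fixed, methanol-permeabilized and immunostained for pERK with PI counterstain. Fluorescence was read on Acumen and IC50 calculated.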

Experiment [4] has as its target KDR kinase (790-1356 AA) (Homo sapiens (Human), UniProt P35968). The experiment in a line: Inhibitory activity at KDR kinase (Lance Ultra Ulight-TK assay). The experiment is classed as biochemical. A digest of the protocol:
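TR-FRET (Eu-anti-phosphotyrosine PT66) with 20 nM KDR preincubated with compound 20 min at 30 °C in HEPES pH 7.5 buffer with Mg2+/Mn2+, 0.5% DMSO.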

Where [5] appears, read: PLC-PRF-5, PLC-PRF-5 cells, read-out: PLC-PRF-5 cell proliferation IC50.
[6] abbreviates: Homo sapiens, MDA-MB-231, MDA-MB-231 cells, read-out: MDA-MB-231 pERK IC50.

B-Raf kinase, sequence (P15056 416-766): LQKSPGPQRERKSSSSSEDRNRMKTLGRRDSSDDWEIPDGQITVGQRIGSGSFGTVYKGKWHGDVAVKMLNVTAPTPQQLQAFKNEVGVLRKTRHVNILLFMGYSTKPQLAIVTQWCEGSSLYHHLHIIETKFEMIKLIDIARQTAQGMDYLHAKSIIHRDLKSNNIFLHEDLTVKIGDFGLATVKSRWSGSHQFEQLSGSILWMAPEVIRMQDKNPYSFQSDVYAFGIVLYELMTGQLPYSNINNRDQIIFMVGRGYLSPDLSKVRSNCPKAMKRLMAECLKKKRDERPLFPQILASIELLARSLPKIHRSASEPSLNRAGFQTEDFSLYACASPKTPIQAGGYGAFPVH
KDR kinase (790-1356 AA), sequence (P35968 790-1356): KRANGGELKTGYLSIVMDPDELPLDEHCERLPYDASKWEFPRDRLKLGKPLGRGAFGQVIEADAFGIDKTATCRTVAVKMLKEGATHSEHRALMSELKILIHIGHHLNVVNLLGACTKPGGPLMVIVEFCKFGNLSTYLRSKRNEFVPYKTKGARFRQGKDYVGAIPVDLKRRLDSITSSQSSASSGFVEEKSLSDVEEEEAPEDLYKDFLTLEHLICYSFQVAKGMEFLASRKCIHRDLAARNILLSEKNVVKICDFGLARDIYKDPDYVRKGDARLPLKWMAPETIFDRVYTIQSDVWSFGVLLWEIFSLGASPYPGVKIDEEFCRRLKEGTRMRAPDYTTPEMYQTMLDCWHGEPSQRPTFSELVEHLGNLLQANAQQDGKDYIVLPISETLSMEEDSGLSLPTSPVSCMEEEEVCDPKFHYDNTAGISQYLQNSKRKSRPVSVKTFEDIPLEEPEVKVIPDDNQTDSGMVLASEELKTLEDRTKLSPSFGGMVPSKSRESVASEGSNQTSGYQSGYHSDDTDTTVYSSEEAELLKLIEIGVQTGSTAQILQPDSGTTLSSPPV

Consider `Cc1cc(Oc2cc(NC(=O)C3CC3)ncn2)ccc1NC(=O)Nc1ccc(Cl)c(C(F)(F)F)c1` [Exe. 001, N-[6-[4-[[4-chloro-3-(trifluoromethyl)phenyl]carbamoylamino]-3-methyl-phenoxy]pyrimidin-4-yl]cyclopropanecarboxamide], for which the pIC50 in experiment [1] (setting [5]) was 5.16; in experiment [2], 7.41; in experiment [3] (setting [6]), 7.51; in experiment [4], 7.96.

Turning to `O=C(Nc1ccc(Oc2cc(NC(=O)C3CC3)ncn2)cc1)Nc1ccc(Cl)c(C(F)(F)F)c1` [Exe. 007], the pIC50 in experiment [1] (setting [5]) is 5.14; in experiment [2] it was 7.61; in experiment [3] (setting [6]) it was 7.34; in experiment [4], 8.24.

In the case of `O=C(Nc1ccc(Oc2cc(NC(=O)C3CC3)ncn2)c(F)c1)Nc1ccc(Cl)c(C(F)(F)F)c1` [Exe. 008], the pIC50 in experiment [1] (setting [5]) is 5.34; in experiment [2] it was 7.60; in experiment [3] (setting [6]), 6.91; in experiment [4], 8.24.

With `O=C(Nc1ccc(Cl)c(C(F)(F)F)c1)Nc1ccc(Oc2cc(NC(=O)C3CC3)ncn2)cc1F` [Exe. 009], the pIC50 is 5.44 in experiment [1] (setting [5]), 7.59 in experiment [2], 7.69 in experiment [3] (setting [6]) and 8.05 in experiment [4].

As to `Cc1cc(NC(=O)Nc2ccc(Cl)c(C(F)(F)F)c2)ccc1Oc1cc(NC(=O)C2CC2)ncn1` [Exe. 010], the pIC50 in experiment [1] (setting [5]) is 5.36; in experiment [2] it was 7.01; in experiment [3] (setting [6]) it was 7.37; in experiment [4] it was 7.86.

For the compound `Cc1cc(NC(=O)Nc2ccc(Cl)c(C(F)(F)F)c2)cnc1Oc1ccnc(NC(=O)C2CC2)c1` [Exe. 017], the pIC50 in experiment [1] (setting [5]) was 5.55; in experiment [2], 7.80; in experiment [3] (setting [6]), 7.73; in experiment [4] it was 7.53.

Consider `O=C(Nc1cnc(Oc2ccnc(NC(=O)C3CC3)c2)c(Cl)c1)Nc1ccc(Cl)c(C(F)(F)F)c1` [Exe. 019], for which the pIC50 in experiment [1] (setting [5]) was 6.08; in experiment [2] it was 7.74; in experiment [3] (setting [6]), 6.76; in experiment [4], 7.65.

As for `O=C(Nc1ccc(Oc2ccnc(NC(=O)C3CC3)c2)nc1)Nc1ccc(Cl)c(C(F)(F)F)c1` [Exe. 020], the pIC50 in experiment [1] (setting [5]) is 5.70; in experiment [2], 7.71; in experiment [3] (setting [6]), 6.54; in experiment [4] it was 8.24.

Consider `O=C(Nc1ccc(Cl)c(C(F)(F)F)c1)Nc1ccc(Oc2ccnc(NC(=O)C3CC3)c2)cn1` [Exe. 021], for which the pIC50 in experiment [1] (setting [5]) is 6.22; in experiment [2] it was 7.61; in experiment [3] (setting [6]), 7.99; in experiment [4], 8.12.

For `O=C(Nc1ccc(Oc2ccnc(NC(=O)C3CC3)c2)c(F)c1)Nc1ccc(Cl)c(C(F)(F)F)c1` [Exe. 022], the pIC50 is 5.77 in experiment [1] (setting [5]); 8.44 in experiment [2]; 7.71 in experiment [3] (MDA-MB-231 cells, read-out: MDA-MB-231 pERK IC50); 8.37 in experiment [4].

For the compound `Cc1cc(Oc2ccnc(NC(=O)C3CC3)c2)ccc1NC(=O)Nc1ccc(Cl)c(C(F)(F)F)c1` [Exe. 023], the pIC50 was 5.38 in experiment [1] (setting [5]), 7.82 in experiment [2], 8.16 in experiment [3] (setting [6]) and 7.98 in experiment [4].

For `O=C(Nc1cc(F)cc(Oc2ccnc(NC(=O)C3CC3)c2)c1)Nc1ccc(Cl)c(C(F)(F)F)c1` [Exe. 024], the pIC50 in experiment [1] (setting [5]) is 5.37; in experiment [2] it was 8.29; in experiment [3] (setting [6]), 7.71; in experiment [4], 7.47.

Consider `O=C(Nc1cnc(Oc2ccnc(NC(=O)C3CC3)c2)c(F)c1)Nc1ccc(Cl)c(C(F)(F)F)c1` [Exe. 025], for which the pIC50 in experiment [1] (setting [5]) was 6.43; in experiment [2], 8.04; in experiment [3] (setting [6]), 7.15; in experiment [4] it was 7.83.

`CC1(C(=O)Nc2cc(Oc3ccc(NC(=O)Nc4ccc(Cl)c(C(F)(F)F)c4)cc3F)ccn2)CC1` [Exe. 028]: the pIC50 in experiment [1] (setting [5]) is 5.60; in experiment [2], 7.68; in experiment [3] (setting [6]) it was 6.41; in experiment [4], 7.90.

Regarding `CN1CCN(Cc2cc(NC(=O)Nc3ccc(Oc4ccnc(NC(=O)C5CC5)c4)cc3)cc(C(F)(F)F)c2)CC1` [Exe. 064], the pIC50 in experiment [1] (setting [5]) is 6.21; in experiment [2], 8.34; in experiment [4] it was 7.92.

Turning to `Cc1cc(Oc2ccnc(NC(=O)C3CC3)c2)ccc1NC(=O)Nc1ccc(F)c(C(C)(F)F)c1` [Exe. 200], the pIC50 in experiment [1] (setting [5]) is 5.50; in experiment [3] (setting [6]), 8.26; in experiment [4] it was 8.00.

For the compound `O=C(Nc1cccc(C(F)(F)F)c1)Nc1cnc(Oc2ccnc(NC(=O)C3CC3)c2)c(F)c1` [Exe. 201], the pIC50 is 6.62 in experiment [1] (setting [5]), 6.49 in experiment [3] (setting [6]) and 7.94 in experiment [4].

In the case of `CC(F)(F)c1ccc(F)c(NC(=O)Nc2cnc(Oc3ccnc(NC(=O)C4CC4)c3)c(F)c2)c1` [Exe. 202], the results for the pIC50 in experiment [1] (setting [5]), in experiment [3] (setting [6]) and in experiment [4] were 7.18, 6.61 and 7.90, respectively.

Regarding `CN(c1ccnc(NC(=O)C2CC2)c1)c1ccc(NC(=O)Nc2cccc(C(F)(F)F)c2)c(F)c1` [Exe. 203], the results for the pIC50 in experiment [1] (setting [5]), in experiment [3] (setting [6]) and in experiment [4] were 6.27, 7.21 and 7.79, respectively.

Consider `O=C(Nc1cccc(C(F)(F)F)c1)Nc1ccc(Nc2ccnc(NC(=O)C3CC3)c2)cc1F` [Exe. 204], for which the pIC50 in experiment [1] (setting [5]) is 5.73; in experiment [3] (setting [6]) it was 7.14; in experiment [4], 8.03.

As for `N#Cc1ccc(NC(=O)Nc2ccc(Oc3ccnc(NC(=O)C4CC4)c3)cc2F)cc1C(F)(F)F` [Exe. 206], the pIC50 in experiment [1] (PLC-PRF-5, read-out: PLC-PRF-5 cell proliferation IC50) is 5.78; in experiment [3] (Homo sapiens, MDA-MB-231, read-out: MDA-MB-231 pERK IC50), 8.09; in experiment [4] it was 7.84.

Regarding `Cc1ccc(NC(=O)Nc2ccc(Oc3ccnc(NC(=O)C4CC4)c3)cc2F)cc1C(F)(F)F` [Exe. 207], the pIC50 was 7.15 in experiment [1] (setting [5]), 8.08 in experiment [3] (setting [6]) and 7.99 in experiment [4].

As to `O=C(Nc1cncc(C(F)(F)F)c1)Nc1ccc(Oc2ccnc(NC(=O)C3CC3)c2)cc1F` [Exe. 213], the pIC50 in experiment [1] (setting [5]) was 7.10; in experiment [3] (setting [6]), 8.14; in experiment [4], 7.97.

For the compound `O=C(Nc1ccc(Oc2ccnc(NC(=O)C3CC3)c2)cc1F)Nc1cc(OC(F)(F)F)ccc1F` [Exe. 214], the values for the pIC50 in experiment [1] (setting [5]), in experiment [3] (setting [6]) and in experiment [4] were 6.74, 7.94 and 8.03, respectively.

As to `O=C(Nc1ccc(F)c(C2CC2)c1)Nc1ccc(Oc2ccnc(NC(=O)C3CC3)c2)cc1F` [Exe. 222], the pIC50 in experiment [1] (setting [5]) was 6.31; in experiment [3] (setting [6]), 7.76; in experiment [4], 8.06.

With `Cc1ccc(Oc2ccnc(NC(=O)C3CC3)c2)cc1NC(=O)Nc1ccc(F)c(C(F)(F)F)c1` [Exe. 223], the pIC50 in experiment [1] (setting [5]) was 5.46; in experiment [3] (setting [6]) it was 8.05; in experiment [4] it was 8.16.

As for `Cc1ccc(Oc2ccnc(NC(=O)C3CC3)c2)cc1NC(=O)Nc1cccc(C(F)(F)F)c1` [Exe. 226], the pIC50 in experiment [1] (setting [5]) was 5.45; in experiment [3] (setting [6]) it was 7.96; in experiment [4] it was 8.04.

Consider `Cc1ccc(Oc2ccnc(NC(=O)C3CC3)c2)cc1NC(=O)Nc1ccc(Cl)c(C(C)(F)F)c1` [Exe. 228], for which the values for the pIC50 in experiment [1] (setting [5]), in experiment [3] (setting [6]) and in experiment [4] were 5.48, 7.92 and 7.83, respectively.

For the compound `Cc1ccc(Oc2ccnc(NC(=O)C3CC3)c2)cc1NC(=O)Nc1ccc(F)c(C(C)(F)F)c1` [Exe. 229], the pIC50 is 5.50 in experiment [1] (setting [5]), 8.16 in experiment [3] (setting [6]) and 7.87 in experiment [4].

With `Cc1cc(NC(=O)Nc2cc(F)cc(C(C)(F)F)c2)ccc1Oc1ccnc(NC(=O)C2CC2)c1` [Exe. 233], the pIC50 in experiment [1] (setting [5]) is 6.25; in experiment [3] (setting [6]) it was 7.73; in experiment [4], 8.09.

Take `O=C(Nc1cc(-c2cn[nH]c2)cc(C(F)(F)F)c1)Nc1ccc(Oc2ccnc(NC(=O)C3CC3)c2)c(F)c1` [Exe. 238]: the pIC50 in experiment [1] (setting [5]) is 5.65; in experiment [3] (setting [6]), 7.24; in experiment [4], 7.81.

On to `O=C(Nc1cc(NC(=O)[C@@H]2CCCN2)cc(C(F)(F)F)c1)Nc1ccc(Oc2ccnc(NC(=O)C3CC3)c2)c(F)c1` [Exe. 240], for which the pIC50 in experiment [1] (setting [5]) is 5.98; in experiment [3] (setting [6]), 7.57; in experiment [4], 7.72.

Regarding `CN1CCC(C(=O)Nc2cc(NC(=O)Nc3ccc(Oc4ccnc(NC(=O)C5CC5)c4)c(F)c3)cc(C(F)(F)F)c2)CC1` [Exe. 242], the pIC50 is 5.33 in experiment [1] (setting [5]), 6.43 in experiment [3] (setting [6]) and 7.78 in experiment [4].
